Experimental data from patent US9693554B2, “Plant growth accelerator” (COSMO OIL CO., LTD., priority 2013, dated 2017).

What was measured:
Type in all cases: in vivo
[1] = test system: Radish; test: Growth accelerating effect on radish (pot grown); conditions: 200 L per 10 a, applied 15 and 21 days after seeding, measured 28 days after seeding
Method: (§1) Radish was seeded in a pot and grown. The soil used was a sterilized compost containing fertilizer components (180 mg/L of nitrogen, 120 mg/L of phosphoric acid, 220 mg/L of potassium). The plants were set at 4 plants/pot and 4 pots/area. 15 days after and 21 days after seeding, 200 L per 10 a of aqueous solutions containing 0.06 ppm or 0.6 ppm of 5-amino-4-hydroxypentanoic acid was applied. 28 days after seeding, the fresh weight of the edible part was measured.

[2] = test system: Broccoli; test: Growth accelerating effect on broccoli (pot grown); conditions: 0.6 ppm
Method: Commercial young plants were settled in a pot and grown. The soil used was a sterilized compost containing fertilizer components (180 mg/L of nitrogen, 120 mg/L of phosphoric acid, 220 mg/L of potassium). The plants were set at 1 plant/pot and 4 pots/area. Every week (2 weeks through 10 weeks) after settling, 200 L per 10 a of an aqueous solution containing 0.6 ppm of 5-amino-4-hydroxypentanoic acid was applied. 11 weeks after settling, the fresh weight of the edible part was measured.

[3] = test system: Komatsuna turnip green; test: Growth accelerating effect on Komatsuna turnip green (field grown); conditions: 0.06 ppm
Method: Komatsuna turnip green was seeded and grown at a field. The soil used was red clay. The plants were set at 40 to 52 plants/section and 2 to 3 sections/area. A coated fertilizer (containing 13% nitrogen, 11% phosphoric acid and 13% potassium) as a basal fertilizer was applied so that nitrogen was 50 kg per 10 a. 22 days after seeding, 1000 L per 10 a of an aqueous solution containing 0.06 ppm of 5-amino-4-hydroxypentanoic acid was applied twice. 42 days after seeding, the fresh weight of the above-ground part was measured.

[4] = test system: Garland chrysanthemum; test: Growth accelerating effect on garland chrysanthemum (pot grown); conditions: 200 L per 10 a, applied 4, 5, 6 and 7 weeks after seeding, measured 8 weeks after seeding
Method: as §1, with “Garland chrysanthemum” for “Radish”, “4, 5, 6” for “15 days after”, “7 weeks” for “21 days”, “8 weeks” for “28 days”, “above-ground” for “edible”

[5] = test system: Barley; test: Growth accelerating effect on barley (pot grown); conditions: 200 L per 10 a, applied 22 days after seeding, measured 35 days after seeding
Method: Barley was seeded in a pot and grown. The soil used was black soil. The plants were set at 4 plants/pot and 4 to 6 pots/area. A chemical fertilizer (containing 8% of nitrogen, phosphoric acid and potassium respectively) as a basal fertilizer was applied so that each of nitrogen, phosphoric acid and potassium was 5 kg per 10 a. 22 days after seeding, 200 L per 10 a of aqueous solutions containing 0.006 ppm, 0.06 ppm or 0.6 ppm, of 5-amino-4-hydroxypentanoic acid was applied. 35 days after seeding, the plant height, tillering and dry weight of the above-ground part were measured.

SMILES: NCC(O)CCC(=O)O (centres unmarked) [5-amino-4-hydroxypentanoic acid]
- Fresh weight of edible part (average) ([1]; 0.06 ppm): 2.26 g
- Fresh weight of edible part (average) ([1]; 0.6 ppm): 2.54 g
- Increase of fresh weight of the edible part compared with the control area ([2]; 11 weeks after settling): 6%
- Fresh weight of edible part (average) ([2]; 200 L per 10 a, applied every week (2 through 10 weeks) after settling, measured 11 weeks after settling): 39.2 g
- Increase of fresh weight of the above-ground part compared with the control area ([3]; 42 days after seeding): 19%
- Fresh weight of above-ground part (average) ([3]; field, 1000 L per 10 a, applied twice, 22 days after seeding, measured 42 days after seeding): 40.6 g
- Fresh weight of above-ground part (average) ([4]; 0.06 ppm): 25.5 g
- Fresh weight of above-ground part (average) ([4]; 0.6 ppm): 24.8 g
- Plant length (average) ([5]; 0.006 ppm aqueous solution): 19.4 cm
- Dry weight of above-ground part (average) ([5]; 0.006 ppm): 103 mg
- Tillering (average) ([5]; 0.006 ppm): 3.50
- Plant length (average) ([5]; 0.06 ppm aqueous solution): 20.1 cm
- Dry weight of above-ground part (average) ([5]; 0.06 ppm): 103 mg
- Tillering (average) ([5]; 0.06 ppm): 3.53
- Plant length (average) ([5]; 0.6 ppm aqueous solution): 20.2 cm
- Dry weight of above-ground part (average) ([5]; 0.6 ppm): 112 mg
- Tillering (average) ([5]; 0.6 ppm): 3.79
